The numbers were not newly measured in patent US20200281890A1, “COMPOSITIONS COMPRISING CANNABIDIOL, TETRAHYDROCANNABINOL, TERPENES, AND […] USE THEREOF IN THE TREATMENT OF INSOMNIA” (CANOPY HEALTH INNOVATIONS, priority 2017, published 2020), which cites them from elsewhere.

The target of one series is CB2 receptor (Homo sapiens, UniProt P34972).
A further series deals with T1, 5-HT1A receptor (Homo sapiens, UniProt P08908).
T1 sequence (P08908 1-422): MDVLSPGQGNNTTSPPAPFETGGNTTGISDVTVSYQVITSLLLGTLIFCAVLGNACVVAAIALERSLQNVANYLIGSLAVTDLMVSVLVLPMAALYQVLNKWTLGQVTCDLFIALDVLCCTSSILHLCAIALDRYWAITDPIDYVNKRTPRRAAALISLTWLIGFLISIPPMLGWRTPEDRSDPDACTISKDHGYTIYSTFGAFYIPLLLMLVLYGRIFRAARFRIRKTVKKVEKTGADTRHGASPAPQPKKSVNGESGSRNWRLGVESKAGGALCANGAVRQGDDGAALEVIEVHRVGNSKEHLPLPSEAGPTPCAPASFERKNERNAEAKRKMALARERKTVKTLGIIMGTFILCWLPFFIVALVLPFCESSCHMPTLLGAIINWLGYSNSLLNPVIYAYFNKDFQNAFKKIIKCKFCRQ

Series [1] relates to mice, rats, gerbils and non-human primates.
The target of another series is CB1 receptor (Homo sapiens, UniProt P21554).
CB1 receptor, sequence (P21554 whole entry): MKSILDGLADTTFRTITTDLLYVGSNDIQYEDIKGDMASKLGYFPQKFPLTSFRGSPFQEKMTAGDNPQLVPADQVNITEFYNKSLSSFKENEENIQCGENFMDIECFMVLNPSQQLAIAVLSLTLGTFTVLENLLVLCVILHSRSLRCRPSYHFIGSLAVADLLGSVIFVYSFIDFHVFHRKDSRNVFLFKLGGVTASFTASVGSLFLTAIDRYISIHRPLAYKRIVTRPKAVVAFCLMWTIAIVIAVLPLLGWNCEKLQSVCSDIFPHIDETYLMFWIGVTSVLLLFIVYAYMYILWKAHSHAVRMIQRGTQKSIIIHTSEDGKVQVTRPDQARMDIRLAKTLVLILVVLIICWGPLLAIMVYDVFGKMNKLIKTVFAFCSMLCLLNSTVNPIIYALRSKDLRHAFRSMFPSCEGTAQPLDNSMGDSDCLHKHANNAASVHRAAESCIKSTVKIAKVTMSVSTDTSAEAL
For a further series, the system named is mouse. To be noted: up to 80 mg/kg.

CB2 receptor, sequence (P34972 whole entry): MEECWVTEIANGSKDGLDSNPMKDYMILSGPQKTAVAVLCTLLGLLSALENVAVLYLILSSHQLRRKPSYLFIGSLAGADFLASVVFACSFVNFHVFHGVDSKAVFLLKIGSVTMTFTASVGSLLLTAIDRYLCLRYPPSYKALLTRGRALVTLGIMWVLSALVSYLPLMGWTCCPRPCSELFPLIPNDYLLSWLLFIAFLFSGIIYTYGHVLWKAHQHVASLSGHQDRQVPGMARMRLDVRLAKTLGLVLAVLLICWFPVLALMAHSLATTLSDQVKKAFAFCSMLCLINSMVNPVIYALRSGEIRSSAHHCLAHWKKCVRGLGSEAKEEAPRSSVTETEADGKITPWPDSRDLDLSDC

For the molecule `CCCCCc1cc(O)c(C/C=C(\C)CCC=C(C)C)c(O)c1` [CBG, cannabigerol], the “a2-adrenergic receptor affinity and function” value in the series on a2-adrenergic receptor was “high affinity a2-adrenergic receptor agonist”. Further, the “CB2 receptor binding and function” value at CB2 receptor is listed as “antagonist”. Moreover, the “5-HT1A receptor affinity and function” value at 5-HT1A receptor is “moderate affinity 5-HT1A receptor antagonist”. Also, the THC-like activity result in series [1] is given as “does not trigger THC-like activity”. In addition, the “CB1 receptor affinity and function” value at CB1 receptor is “low affinity CB1 receptor antagonist”. The “effect in mouse tetrad test (locomotor suppression, catalepsy, hypothermia and analgesia)” value with mouse is “without effect”.

For `CCCCCc1cc(O)c2c(c1)OC(C)(C)c1ccc(C)cc1-2` [CBN, cannabinol], on CB2 receptor (lower affinities in comparison to THC), the “affinity to CB2 receptors relative to CB1” value was “higher affinity to CB2 receptors”. The “function at the CB1 receptors” value at CB1 receptor is “partial agonist”.
